The record followed here is US5328830A, “Potassium channel modulators” (Miles Inc., priority 1992, dated 1994).

Several values for one entry are separate records, joined by “and”; a condition that tells them apart may be missing. Identical values can stand only once. Counter-ions that a name gives are not always drawn. Like-named read-outs stand apart in the source and are kept apart here.

Test [1] concerns CMPD-I-sensitive, K^+ channel binding site. The experiment in a line: [^3 H]CMPD-I ligand binding to intact RINm5F cells. Also noted: species or system rat. To be noted: for inhibition of [^3 H]CMPD-I binding: result in words. How it is done:
The cells were fed three times a week and passed weekly with 0.25% trypsin/0.02% EDTA (JRH Biosciences, Lenexa, Kans.). For intact cell binding experiments, RINm5F cells were plated onto 60 mm polystyrene petri dishes (Corning) at 5×10^6 cells/dish and grown for 3 days without a change of media. Alternatively, cells were seeded 1×10^6 cells/dish and grown for 7 days with the last feeding two days prior to use. Final cell density was 10-20 ×10^6 cells/dish. […] Intact cell binding was performed with the cells attached to the dishes. Binding was terminated by three successive 3 ml washes of cold (4° C.) buffer. Cells were removed from the dish in 1.6 ml of 0.5 N NaOH, briefly sonicated and radioactivity was quantitated with a liquid scintillation counter using 10 ml cocktail (Ultima Gold, Packard). Statistical analysis to determine KD and BMax was accomplished using nonlinear regression (Enzfitter, Elsevier-Biosoft, Cambridge, UK). IC50 values were determined using a sigmoidal fit of mean percent inhibition versus log of concentration. Petri dishes were removed from the incubator, media was aspirated and the cells were washed (x2) with 3 ml oxygenated (5%CO2 /95%O2) Hanks Buffer (37° C.). Cells were allowed to equilibrate in buffer at least 10 minutes. […] Dishes were incubated at 37° C., in an atmosphere of 5% CO2 /95% for 90 minutes. Bound radioligand was separated from free by aspirating the buffer and washing the cells rapidly (x3) with 3 ml ice cold (4° C.) Hanks Buffer. Cells were then removed and solubilized with the addition of 1.6 ml 0.5N NaOH. Dishes were mounted on an orbit shaker (Lab Line) and rotated at 100-125 rpm for 20-45 minutes until the cells would detach from the plates. […] The solutions were vortexed and an aliquot (10 μ`) from each tube was removed for total protein determination. The remainder (1.59 ml) was transferred to a 20 ml vial with 10 ml Ultima Gold (Packard) scintillation cocktail and mixed until the aqueous phase cleared. Each sample was counted for at least one minute by a liquid scintillation system set for counting tritium. Total protein content of each dish was determined by the method of Bradford with bovine serum albumin used as the standard. […] Percent Inhibition of specific binding by test compounds was determined by calculating: 100-[(Cpm (with Drug)-Nonspecific cpm.div.Specific cpm)×100](Basic program) Free and Bound radioligand was calculated (Basic program) and a saturation curve based on a nonlinear regression fit of the data was used to determine a KD (nM) and Bmax (fmoles/mg total cellular protein) of binding (Enzfitter, Id.). Mean percent inhibition of binding at the concentrations tested for each drug was fit to a sigmoidal function. IC50 values were calculated from the plot of the fraction of maximal inhibition versus Log of concentration (Enzfitter, Id.).

In the next test the test system is rat aorta. The experiment in a line: Aortic relaxation of rat aortic rings precontracted with 20 mM KCl. The settings on record: aortae depolarized with 20 mM KCl. The protocol: Male Long-Evans Hooded rats (200-400 g) were sacrificed by acute decapitation. Thoracic aortae were rapidly removed and placed in an oxygenated (100% O2) physiological saline solution (PSS) (pH 7.4) of the following composition in mM: NaCl, 130; KCl, 5.9; MgCl2, 1.2; CaCl2, 0.8; HEPES, 22 and glucose, 11.1. The aortae were trimmed of fat, cut into rings 3 mm in length, mounted in an organ bath containing 10 ml of oxygenated PSS at 37° C. and stretched to a resting tension of 2.0 g. The aortae were depolarized with 20 mM KCl and after contractile response had stabilized, vasodilators were added. The vasorelaxation produced by the drugs was reversed by glyburide (a potent antagonist of ATP-dependent K^+ channels, as described above). Prior to the aortic preparation, the instrument to measure changes in aortic tension was set up and each channel was statically calibrated for linearity using Class S metric weights from 1 to 5 grams, the range consistent with changes observed in this study. This instrument translates isometric changes in tension over time to an electrical signal expressed as a tracing that can be quantified by peak height. […] After a 90 minute equilibration the resting tension was readjusted to the baseline level. […] Percent relaxation of putative K^+ channel agonists was calculated as follows: 100-[(Peak Height (mm) after Drug.div.Initial Peak Height (mm) after 20 mM K^+)×100] […]

As to `Cc1cnc(C(=O)NCCc2ccc(S(=O)(=O)NC(=O)NC3CCCCC3)cc2)cn1` [glypizide], the “inhibition of [^3 H]CMPD-I binding” value in test [1] is reported as “inhibit binding”. Still for that read-out and setting: with `C=C[C@H]1C[N@@]2CC[C@H]1C[C@@H]2[C@@H](O)c1ccnc2ccc(OC)cc12` [quinidine] the entry was “inhibit binding”; with `CC[N+](CC)(CC)CC` [TEA], “inhibit binding”.

Consider `[3H]c1cc([3H])c(NC(=C[N+](=O)[O-])NC(C)C(C)(C)C)c(OCC)c1` (single isomer, unassigned) [[^3 H]CMPD-I], for which the Kd in test [1] (Scatchard analysis, single binding site (FIG. 3), read-out: apparent KD) was 0.7 nM; in test [1] (determined by saturation analysis, read-out: KD) it was 2 nM; in test [1] (two additional experiments, read-out: KD) it was 2.3 nM and 2.4 nM. On to `CC(N/C(=N\C#N)Nc1ccncc1)C(C)(C)C` (centres unmarked) [pinacidil], for which the “inhibition of [^3 H]CMPD-I binding” value in test [1] is given as “inhibited”. Turning to `COc1ccc(Cl)cc1C(=O)NCCc1ccc(S(=O)(=O)NC(=O)NC2CCCCC2)cc1` [glyburide], the “inhibition of [^3 H]CMPD-I binding” value in test [1] was “inhibit binding”. In the test on rat aorta, the “reversal of vasorelaxation produced by the drugs” value is reported as “reversed”. With `Nc1cc(N2CCCCC2)nc(N)[n+]1OS(=O)(=O)[O-]` [minoxidil sulfate], in test [1], the “inhibition of [^3 H]CMPD-I binding” value was “inhibits binding”. On the same count and under the same terms, with `C=C[C@H]1C[N@@]2CC[C@H]1C[C@H]2[C@H](O)c1ccnc2ccc(OC)cc12` [quinine] the entry was “inhibit binding”.
